Assay results as given in PubChem BioAssay (NCI).
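A five-concentration, 48-hour dose response in 96-well plates underlies each endpoint, interpolated linearly between surrounding concentrations. GI50 marks 50% less growth. TGI denotes the concentration required for complete inhibition of growth.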

Columns and labels:
Assay in all cases: growth of human tumour cells (NCI), 48 h
[1] = system: CCRF-CEM leukemia
[2] = system: HCC-2998 colon
[3] = system: NCI-H23 lung
[4] = system: SK-MEL-28 melanoma
[5] = system: SW-620 colon
[6] = system: TK-10 renal
[7] = system: UACC-257 melanoma
[8] = system: UACC-62 melanoma
[9] = system: UO-31 renal
[10] = system: NCI/ADR-RES ovarian

Row | SMILES | TGI [1] [µM] | TGI [2] [µM] | TGI [3] [µM] | TGI [4] [µM] | TGI [5] [µM] | TGI [6] [µM] | TGI [7] [µM] | TGI [8] [µM] | TGI [9] [µM] | GI50 [1] [µM] | GI50 [3] [µM] | GI50 [10] [µM] | TGI [10] [µM] | GI50 [4] [µM] | GI50 [5] [µM] | GI50 [7] [µM] | GI50 [9] [µM] | GI50 [2] [µM] | GI50 [8] [µM] | GI50 [6] [µM]
1 | N/C(=N\N=C=C1C(=O)Nc2ccc(F)cc21)NO | > 100 | > 100 | > 100 | > 100 | > 100 | > 100 | > 100 | > 100 | – | – | – | – | – | – | – | – | – | – | – | –
2 | COC1C2c3ccccc3C(C#N)(Cc3ccc4c(c32)OCO4)N1C(=O)c1ccccc1 (stereo unspecified) | > 100 | > 100 | > 100 | > 100 | > 100 | > 100 | > 100 | > 100 | > 100 | – | – | – | – | – | – | – | – | – | – | –
3 | CCOc1ccc(NC(=O)/C(=C/c2ccccc2)C(C)=O)cc1 | 10.5 | 27.1 | 24.8 | 26 | 33.2 | 32.9 | 27.9 | 20.1 | 21.6 | – | – | – | – | – | – | – | – | – | – | –
4 | COc1ccc(C(=O)Nc2ccccc2C#N)cc1 | > 100 | – | > 100 | > 100 | > 100 | > 100 | > 100 | > 100 | – | – | – | – | – | – | – | – | – | – | – | –
5 | Fc1cccc(C=NC23CC4CC(CC(C4)C2)C3)c1 | > 100 | > 100 | > 100 | > 100 | – | > 100 | > 100 | > 100 | > 100 | – | – | – | – | – | – | – | – | – | – | –
6 | Cc1nc(N=C(N)N)nc2ccc3ccccc3c12 | 6.01 | – | 7.31 | 3.71 | 10.3 | – | 4.17 | – | 8.52 | 1.76 | 2.33 | 11.4 | 36 | 1.53 | 0.897 | 1.46 | 2.14 | – | – | –
7 | CC(=O)[CH-]C(=O)c1ccccc1.CC(=O)[CH-]C(=O)c1ccccc1.[O-]Cc1cccs1.[O-]Cc1cccs1.[Ti+4] | – | > 100 | – | > 100 | > 100 | – | > 100 | > 100 | > 100 | – | – | – | – | 43.8 | 49.9 | > 100 | > 100 | > 100 | 18 | –
8 | C=C1C(=O)C23C(O)C1CCC2C12CO[C@]3(O)[C@@H](O)C1C(C)(C)CCC2O (stereo partly specified) | 5.98 | 30.4 | 43.4 | 11.4 | 23.8 | 34.3 | 23.8 | 26.4 | 31.1 | – | – | – | – | – | – | – | – | – | – | –
9 | COc1ccccc1NS(=O)(=O)c1cc(C(C)(C)C)ccc1OCCOc1ccc(C(C)(C)C)cc1S(=O)(=O)Nc1ccccc1OC | > 100 | > 100 | > 100 | > 100 | > 100 | > 100 | > 100 | > 100 | > 100 | – | – | – | – | – | – | – | – | – | – | –
10 | CCN1CCC(O)(c2ccccc2)C(C(=O)c2ccccc2)C1 (stereo unspecified) | 38.3 | > 100 | 97.5 | 33.4 | 38.3 | 47.3 | 46.5 | > 69.2 | > 70 | – | – | – | – | – | – | – | – | – | – | –
11 | O=c1[nH]cnc2c1nnn2C1C=C(CO)C(O)C1O (stereo unspecified) | > 100 | > 100 | > 100 | > 100 | – | > 100 | > 100 | > 100 | > 100 | – | – | – | – | – | – | – | – | – | – | –
12 | Cc1cc2c(C)nn(Cc3ccc(Cl)cc3Cl)c2c(C#N)c1C | > 100 | > 100 | > 100 | > 100 | > 100 | > 100 | > 100 | > 100 | > 100 | – | – | – | – | – | – | – | – | – | – | –
13 | COc1cc(-c2[nH]ncc2CCCC(=O)Nc2ccccc2[N+](=O)[O-])ccc1O | > 100 | > 100 | > 100 | > 100 | > 100 | > 100 | > 100 | > 100 | > 100 | – | – | – | – | – | – | – | – | – | – | –
14 | C[CH2][Sn]([CH2]C)([O]C(=O)c1cc(OC)c(OC)c(OC)c1)[O][Sn]([CH2]C)([CH2]C)[O]C(=O)c1cc(OC)c(OC)c(OC)c1 | 33.1 | > 100 | 36.5 | 33.4 | 34.9 | 33.6 | 52 | 36.7 | > 100 | 7.78 | 16.7 | – | – | 18.4 | 19.1 | 21.3 | > 100 | > 76.1 | 19.3 | 18.9
15 | CCOC(=O)C12CN(C34CC5CC(CC(C5)C3)C4)CC(C(=O)OCC)(C1=O)C(c1ccccc1)OC2c1ccccc1 (stereo unspecified) | > 100 | > 100 | > 100 | > 100 | > 100 | > 100 | > 100 | > 100 | > 100 | – | – | – | – | – | – | – | – | – | – | –
16 | CC1=C(C(=O)Nc2cc(F)c(F)cc2F)C(c2cccc([N+](=O)[O-])c2)C(C(=O)Nc2ccccc2C(F)(F)F)=C(C)N1 (stereo unspecified) | 55.1 | 36.5 | 46.5 | 62.2 | 87.1 | 71.5 | 59.3 | – | 42 | – | – | – | – | – | – | – | – | – | – | –
17 | CCCCCNC(=O)C1C(=O)N(CCCCC)C(=O)/C1=N\N (stereo unspecified) | > 100 | > 100 | > 100 | > 100 | > 100 | > 100 | > 100 | > 100 | 81.8 | – | – | – | – | – | – | – | – | – | – | –
18 | COc1ccc(Nc2nc3c(N)cc(C(F)(F)F)cc3nc2-c2ccccc2)cc1 | > 100 | > 100 | > 100 | > 100 | > 100 | > 100 | > 100 | > 100 | > 100 | – | – | – | – | – | – | – | – | – | – | –
19 | COc1ccc2c(c1)CC[C@@H]1C2CC[C@]2(C)C(=O)N(C)C(=O)CC12 (stereo partly specified) | > 100 | > 100 | > 100 | > 100 | > 100 | > 100 | > 100 | > 100 | > 100 | – | – | – | – | – | – | – | – | – | – | –
20 | Cc1ccc(S(=O)(=O)OC(C=O)C(O)C(O)COC(c2ccccc2)(c2ccccc2)c2ccccc2)cc1 (stereo unspecified) | – | 24.3 | – | 35.9 | 35.2 | – | 25.9 | 28.9 | 30.4 | – | – | – | – | – | – | – | – | – | – | –
21 | CCN=C(N)CSS(=O)(=O)O | > 100 | – | > 100 | > 100 | > 100 | > 100 | > 100 | > 100 | – | – | – | – | > 100 | – | – | – | – | – | – | –
